Assays:
[1] = molecular target: T1, Angiotensin-converting enzyme (Homo sapiens, UniProt P12821); experiment: Inhibition of recombinant human ACE using (7-methoxycoumarin-4-yl)acetyl-Arg-Pro-Pro-Gly-Phe-Ser-Ala-Phe-Lys(2,4-dinitrophenyle)-OH as substrate after 30 mins by fluorescence assay
[2] = molecular target: T1, Angiotensin-converting enzyme; experiment: Inhibition of ACE (unknown origin)

T1 sequence (P12821 whole entry): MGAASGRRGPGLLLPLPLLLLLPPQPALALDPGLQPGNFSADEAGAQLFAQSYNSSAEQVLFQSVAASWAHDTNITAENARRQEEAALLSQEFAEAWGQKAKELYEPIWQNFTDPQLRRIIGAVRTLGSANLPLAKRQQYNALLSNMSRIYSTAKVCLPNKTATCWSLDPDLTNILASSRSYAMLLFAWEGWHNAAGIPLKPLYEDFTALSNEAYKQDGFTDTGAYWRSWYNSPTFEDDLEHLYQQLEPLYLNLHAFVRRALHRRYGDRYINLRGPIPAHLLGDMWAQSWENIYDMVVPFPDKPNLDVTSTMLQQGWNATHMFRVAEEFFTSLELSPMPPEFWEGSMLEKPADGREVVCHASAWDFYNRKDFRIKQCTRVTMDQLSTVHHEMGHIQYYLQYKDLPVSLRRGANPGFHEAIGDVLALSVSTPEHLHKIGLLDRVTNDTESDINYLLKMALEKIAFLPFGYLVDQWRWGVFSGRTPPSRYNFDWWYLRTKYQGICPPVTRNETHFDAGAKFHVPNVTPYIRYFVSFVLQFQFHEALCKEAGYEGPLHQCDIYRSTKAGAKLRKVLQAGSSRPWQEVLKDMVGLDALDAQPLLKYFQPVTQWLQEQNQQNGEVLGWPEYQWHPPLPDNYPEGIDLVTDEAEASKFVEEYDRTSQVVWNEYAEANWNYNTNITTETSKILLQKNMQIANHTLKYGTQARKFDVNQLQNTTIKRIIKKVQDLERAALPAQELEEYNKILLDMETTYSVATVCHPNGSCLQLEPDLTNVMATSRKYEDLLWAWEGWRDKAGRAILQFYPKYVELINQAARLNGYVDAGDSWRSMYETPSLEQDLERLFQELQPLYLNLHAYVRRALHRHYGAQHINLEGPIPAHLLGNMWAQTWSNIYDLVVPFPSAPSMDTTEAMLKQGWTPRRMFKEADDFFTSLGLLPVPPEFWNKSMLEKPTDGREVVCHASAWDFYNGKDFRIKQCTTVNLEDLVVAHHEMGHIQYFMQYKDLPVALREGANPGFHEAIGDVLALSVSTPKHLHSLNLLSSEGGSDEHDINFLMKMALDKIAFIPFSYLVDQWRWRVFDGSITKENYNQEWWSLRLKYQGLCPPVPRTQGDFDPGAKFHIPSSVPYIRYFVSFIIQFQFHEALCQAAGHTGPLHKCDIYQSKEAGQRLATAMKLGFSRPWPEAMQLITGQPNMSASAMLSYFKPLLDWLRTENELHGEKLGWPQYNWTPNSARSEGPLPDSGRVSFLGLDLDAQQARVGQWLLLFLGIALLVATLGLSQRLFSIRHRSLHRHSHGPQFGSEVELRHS

| IC50 [1] [µM] | IC50 [2] [µM] | SMILES |
| --- | --- | --- |
| 0.03 | – | CCCC(N[C@@H](C)C(=O)N1[C@H](C(=O)O)C[C@@H]2CCCC[C@@H]21)P(=O)(O)O (stereo partly drawn) |
| – | 0.0015 | CCC[C@H](N[C@@H](C)C(=O)N1[C@H](C(=O)O)C[C@@H]2CCCC[C@@H]21)C(=O)OCC [PERINDOPRIL] |
| 0.04 | – | C[C@H](NC(CCc1ccccc1)P(=O)(O)O)C(=O)N1[C@H](C(=O)O)C[C@@H]2CCCC[C@@H]21 (stereo partly drawn) |

From ChEMBL document CHEMBL2439978, “Perindopril and ramipril phosphonate analogues as a new class of angiotensin converting enzyme inhibitors” (Bioorg Med Chem, 2013)
